# Test results as given in patent US20250136607A1 (REGOR PHARMACEUTICALS, INC., priority 2021, published 2025).
# Like-named read-outs stand apart in the source and are kept apart here.
# Assays:
# [1] = molecular target: Protein arginine deiminase 4 (PAD4) (Homo sapiens, UniProt Q9UM07); assay: PAD4 ammonia release assay; type: biochemical
# How it was run: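 PAD4 (20 nM, 2× working solution) was preincubated with compound for 15 min at RT in 100 mM HEPES pH 8.0, 2 mM CaCl2, 50 mM NaCl, 0.1 mM TCEP, BSA at 1.25% DMSO. BAEE (600 μM, 2× mix) reacted 60 min, then OPA/DTT/EDTA detection for 120 min. IC50 came from a 4-parameter fit, normalized to 50 μM reference (100%) and DMSO (0%).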
# [2] = test system: Citrullinated Histone H3 in dHL-60 cells (differentiated HL-60); assay: dHL-60 Cit-H3 ELISA assay; type: cell-based, human; conditions: Homo sapiens, HL-60, 3 h, stimulation with 25 μM A23187 for 3 h, read-out: Average IC50 Abs
# Experimental: Cell culture: HL-60 cells were grown in IMDM+20% FBS+1% PS. The suspension cells were split into 1:5 with fresh media every 2-3 days to maintain cell density between 1×10^5 to 1×10^6 viable cells/mL. HL-60 cells differentiation: HL-60 cells were diluted to 1×10^5 cells/mL and differentiated into neutrophil-like cells with 100 mM DMF treatment for 72 hours in flask at 37° C., 5% CO2. dHL-60 Cells plating: • 1) HL-60 cells were collected, and the plate was centrifuged at 1000 rpm for 5 min. • 2) The HL-60 cells were diluted to 1.25×10^6 cells/mL and plated into a 96-well plate with 80 μL/well (i.e., 1×10^5/well). The plate was then incubated in the incubator (5% CO2, 37° C.) for 30 min to allow cells to adhere. Compound treatment: • 1) Preparation of compound serial dilution (source plate 500×, final DMSO concentration: 0.2%): briefly, compounds were dissolved in 100% DMSO to a concentration of 20 mM (the stock solution) and a 3-fold serial dilution with 8-point doses was performed. • 2) A 10× compound solution was pipetted up and down; and 10 μL/well of compounds were added into each well and incubated for 30 min. Stimulation with 25 μM A23187: • 1) A solution of A23187 (250 μM) in complete IMDM (IMDM+10% FBS+1% PS) containing 150 U/mL S7 Nuclease was prepared. The obtained solution was added 10 μL/well into each well and incubated for 3 h in the incubator (5% CO2, 37° C.). • 2) The dHL-60 cells treated with 10 μL/well complete IMDM without A23187 worked as negative control. Sample preparation: • 1) EDTA (0.5 M, 2 μL/well) were added to all the wells to stop the reaction. • 2) The plate was centrifuged at 1000 rpm for 5 min to collect supernatant. • 3) The supernatant was then diluted at least 1:2 before adding to the ELISA plate for citrullinated H3 analysis.
# The standard was reconstituted with 2 mL of Assay buffer to 500 ng/mL. The reconstituted standard was relatively unstable at 4° C. and should be used within 3 hr after reconstitution.
# • 1) 100 μL of the standards or diluted samples were added to the wells on the ELISA plate. • 2) The plate was covered with Cover Sheet and incubated for 2 h at room temperaturert on an orbital shaker.
# On the day of the assay, the reagent was thawed at room temperaturert. For one plate, 1.2 mL of HRP Conjugate were diluted into 10.8 mL of assay buffer. A diluted HRP Conjugate was prepared shortly before use.
# • 1) The wells were empties and rinsed four times with 1× wash buffer with 300 μL/well (Low speed). The plate was inverted between wash steps to empty the plate. After the last wash, the inverted plate was gently tapped on absorbent paper to remove the residual wash buffer. • 2) 100 μL of the HRP Conjugate working solution were added to each well of the plate. • 3) The plate was covered with cover sheet and incubated for 1 h at RT on an orbital shaker.
# • 1) The wells were empties and rinsed four times with 1× wash buffer with 300 μL/well (low speed). The plate was inverted between wash steps to empty the plate. […] 100 uL of HRP STOP solution were added to each well of the plate.
# • 1) Wipe the bottom of the plate with a clean tissue to remove fingerprints, dirt, etc. • 2) Read the plate at a wavelength of 450 nm.
# The percent (%) inhibition at each concentration of compound was calculated based on and relative to the signal in the HPE and ZPE wells contained within each assay plate. The HPE wells worked as […], and the ZPE wells didn't contain any compound but rather DMSO (final concentration=0.1%) as […]. The concentrations and % inhibition values for tested compounds were plotted and the concentration of compound required for 50% inhibition (IC50) was determined with a Four-parameter logistic dose response equation. The endpoint value (IC50) for the reference peptide/compound was evaluated in each experiment as a quality control measure. If the endpoint value is within 3-fold of the expected value then the experiment is deemed acceptable. […]
# [3] = PAD4 ammonia release assay, BAEE substrate, 60 min at RT, read-out: Average IC50 Abs
# [4] = PAD4 activity comparison, read-out: PAD4 Ammonia assay IC50
# Chain of Protein arginine deiminase 4 (PAD4) (Q9UM07 whole entry): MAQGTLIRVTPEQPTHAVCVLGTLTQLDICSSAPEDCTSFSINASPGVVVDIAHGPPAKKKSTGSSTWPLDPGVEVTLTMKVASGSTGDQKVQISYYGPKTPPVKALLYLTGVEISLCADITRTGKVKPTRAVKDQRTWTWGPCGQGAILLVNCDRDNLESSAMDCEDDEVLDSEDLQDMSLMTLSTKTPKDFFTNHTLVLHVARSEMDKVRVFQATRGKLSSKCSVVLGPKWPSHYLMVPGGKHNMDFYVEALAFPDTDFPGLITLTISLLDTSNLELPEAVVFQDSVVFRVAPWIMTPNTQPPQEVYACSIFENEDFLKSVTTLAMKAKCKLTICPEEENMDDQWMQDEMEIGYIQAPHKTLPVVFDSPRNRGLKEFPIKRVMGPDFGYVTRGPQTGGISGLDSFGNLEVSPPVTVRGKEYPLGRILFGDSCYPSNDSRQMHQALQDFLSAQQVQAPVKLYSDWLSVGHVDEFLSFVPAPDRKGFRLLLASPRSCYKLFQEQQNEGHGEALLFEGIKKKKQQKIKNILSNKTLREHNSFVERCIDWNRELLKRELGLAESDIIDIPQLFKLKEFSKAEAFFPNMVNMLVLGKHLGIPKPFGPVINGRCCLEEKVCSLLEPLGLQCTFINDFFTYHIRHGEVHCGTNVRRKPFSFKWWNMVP
"IC50 [1, 3]",IC50 [2],"IC50 [1, 4]",SMILES
0.1 to 0.5 µM,0.5 to 5 µM,,"COc1cc(C(=O)N2CCC[C@@H](N)C2)cc2nc(-c3cc4cccc5c4n3CCN5CCCO)n(Cc3cnn(C)c3)c12 [Example 44, (R)-(3-aminopiperidin-1-yl)(2-(1-(3-hydroxypropyl)-2,3-dihydro-1H-pyrrolo[1,2,3-de]quinoxalin-5-yl)-7-methoxy-1-((1-methyl-1H-pyrazol-4-yl)methyl)-1H-benzo[d]imidazol-5-yl)methanone]"
0.1 to 0.5 µM,0.1 to 0.5 µM,,"CCC1CN(CCC(C)(C)O)c2cccc3cc(-c4nc5cc(C(=O)N6C[C@H]7CC[C@@H]6[C@@H]7N)cc(F)c5n4C)n1c23 (stereo partly drawn) [Example 88, ((1R,4R,7R)-7-amino-2-azabicyclo[2.2.1]heptan-2-yl)(2-(3-ethyl-1-(3-hydroxy-3-methylbutyl)-2,3-dihydro-1H-pyrrolo[1,2,3-de]quinoxalin-5-yl)-7-fluoro-1-methyl-1H-benzo[d]imidazol-5-yl)methanone]"
> 5 µM,0.5 to 5 µM,5.43 µM,"COc1cc(C(=O)N2CCC[C@@H](N)C2)cc2nc(-c3cc4cccc5c4n3CCN5)n(C)c12 [Example 2, (R)-(3-aminopiperidin-1-yl)(2-(2,3-dihydro-1H-pyrrolo[1,2,3-de]quinoxalin-5-yl)-7-methoxy-1-methyl-1H-benzo[d]imidazol-5-yl)methanone]"
0.5 to 5 µM,,,"COc1cc(C(=O)N2CCC3CC3(N)C2)cc2nc(-c3cc4cccc5c4n3CCN5CCCO)n(CC3CC3)c12 (stereo not shown) [Example 55, (1-amino-3-azabicyclo[4.1.0]heptan-3-yl)(1-(cyclopropylmethyl)-2-(1-(3-hydroxypropyl)-2,3-dihydro-1H-pyrrolo[1,2,3-de]quinoxalin-5-yl)-7-methoxy-1H-benzo[d]imidazol-5-yl)methanone]"
> 5 µM,,9.53 µM,"Cn1c(-c2cc3cccc4c3n2CCN4)nc2cc(C(=O)N3CCC[C@@H](N)C3)ccc21 [Example 166, (R)-(3-aminopiperidin-1-yl)(2-(2,3-dihydro-1H-pyrrolo[1,2,3-de]quinoxalin-5-yl)-1-methyl-1H-benzo[d]imidazol-5-yl)methanone]"
0.5 to 5 µM,,,"COc1cc(C(=O)N2CCC[C@@H](N)C2)cc2nc(-c3cc4cccc5c4n3CCN5CCCNC(=O)NC3CC3)n(C)c12 [Example 5, (R)-1-(3-(5-(5-(3-aminopiperidine-1-carbonyl)-7-methoxy-1-methyl-1H-benzo[d]imidazol-2-yl)-2,3-dihydro-1H-pyrrolo[1,2,3-de]quinoxalin-1-yl)propyl)-3-cyclopropylurea]"
0.5 to 5 µM,,,"CCC1CNc2cccc3cc(-c4nc5cc(C(=O)N6C[C@H]7CC[C@@H]6[C@@H]7N)cnn5c4C)n1c23 (stereo partly drawn) [Example 138, [(1R,4R,7R)-7-amino-2-azabicyclo[2.2.1]heptan-2-yl]-[2-(11-ethyl-1,9-diazatricyclo[6.3.1.0^4,12]dodeca-2,4,6,8(12)-tetraen-2-yl)-3-methyl-imidazo[1,2-b]pyridazin-7-yl]methanone]"
> 5 µM,,,"CCC1CNc2nccc3cc(-c4nc5cc(C(=O)N6C[C@H]7CC[C@@H]6[C@@H]7N)cc(F)c5n4C)n1c23 (stereo partly drawn) [Example 135, ((1R,4R,7R)-7-amino-2-azabicyclo[2.2.1]heptan-2-yl)(2-(3-ethyl-4,5-dihydro-3H-2a, 5,6-triazaacenaphthylen-2-yl)-7-fluoro-1-methyl-1H-benzo[d]imidazol-5-yl)methanone]"
0.5 to 5 µM,,,"COc1cc(C(=O)N2C[C@H](N)C[C@@H](F)C2)cc2nc(-c3cc4cccc5c4n3CCN5C(=O)CO)n(C)c12 [Example 28, 1-(5-(5-((3R,5R)-3-amino-5-fluoropiperidine-1-carbonyl)-7-methoxy-1-methyl-1H-benzo[d]imidazol-2-yl)-2,3-dihydro-1H-pyrrolo[1,2,3-de]quinoxalin-1-yl)-2-hydroxyethan-1-one]"
> 5 µM,,,"COc1cc(C(=O)N2C[C@H]3CC[C@@H]2[C@@H]3N)cc2nc(-c3cc4cccc5c4n3CCN5CCCO)n(Cc3cnn(C)c3)c12 [Example 45, ((1R,4R,7R)-7-amino-2-azabicyclo[2.2.1]heptan-2-yl)(2-(1-(3-hydroxypropyl)-2,3-dihydro-1H-pyrrolo[1,2,3-de]quinoxalin-5-yl)-7-methoxy-1-((1-methyl-1H-pyrazol-4-yl)methyl)-1H-benzo[d]imidazol-5-yl)methanone]"
0.1 to 0.5 µM,,,"CCn1cc(Cn2c(-c3cc4cccc5c4n3CCN5CCO)nc3cc(C(=O)N4C[C@H](N)C[C@@H](F)C4)cc(F)c32)cn1 [Example 39, ((3R,5R)-3-amino-5-fluoropiperidin-1-yl)(1-((1-ethyl-1H-pyrazol-4-yl)methyl)-7-fluoro-2-(1-(2-hydroxyethyl)-2,3-dihydro-1H-pyrrolo[1,2,3-de]quinoxalin-5-yl)-1H-benzo[d]imidazol-5-yl)methanone]"
> 5 µM,,,"COc1cc(C(=O)N2C[C@@H](N)C3(CC3)C2)cc2nc(-c3cc4cccc5c4n3CCN5CCCO)n(CC3CC3)c12 [Example 61, (S)-(7-amino-5-azaspiro[2.4]heptan-5-yl)(1-(cyclopropylmethyl)-2-(1-(3-hydroxypropyl)-2,3-dihydro-1H-pyrrolo[1,2,3-de]quinoxalin-5-yl)-7-methoxy-1H-benzo[d]imidazol-5-yl)methanone]"
> 5 µM,,,"COc1cc(-n2cc3c(n2)CCC(N)C3)cc2nc(-c3cc4cccc5c4n3CCN5CCCO)n(C)c12 (stereo not shown) [Example 62, 3-(5-(5-(5-amino-4,5,6,7-tetrahydro-2H-indazol-2-yl)-7-methoxy-1-methyl-1H-benzo[d]imidazol-2-yl)-2,3-dihydro-1H-pyrrolo[1,2,3-de]quinoxalin-1-yl)propan-1-ol]"
> 5 µM,,,"CCC1CNc2nccc3cc(-c4nc5cc(C(=O)N6C[C@H](N)C[C@@H](F)C6)cc(F)c5n4C)n1c23 (stereo partly drawn) [Example 136, ((3R,5R)-3-amino-5-fluoropiperidin-1-yl)(2-(3-ethyl-4,5-dihydro-3H-2a, 5,6-triazaacenaphthylen-2-yl)-7-fluoro-1-methyl-1H-benzo[d]imidazol-5-yl)methanone]"
> 5 µM,,,"COc1cc(C(=O)N2CCC[C@@H](N)C2)cc2nc(-c3cc4cccc5c4n3CCN5C(=O)c3ccccc3)n(C)c12 [Example 31, (R)-(3-aminopiperidin-1-yl)(2-(1-benzoyl-2,3-dihydro-1H-pyrrolo[1,2,3-de]quinoxalin-5-yl)-7-methoxy-1-methyl-1H-benzo[d]imidazol-5-yl)methanone]"
0.5 to 5 µM,,,"Cn1c(-c2cc3ccn4c(=O)[nH]nc4c3n2CC2CC2)nc2cc(C(=O)N3C[C@H]4CC[C@@H]3[C@@H]4N)cc(F)c21 [Example 160, 8-(5-((1R,4R,7R)-7-amino-2-azabicyclo[2.2.1]heptane-2-carbonyl)-7-fluoro-1-methyl-1H-benzo[d]imidazol-2-yl)-9-(cyclopropylmethyl)-2,9-dihydro-3H-pyrrolo[2,3-c][1,2,4]triazolo[4,3-a]pyridin-3-one]"
0.5 to 5 µM,,,COc1cc(C(=O)N2CCC[C@@H](N)C2)cc2nc(-c3cc4cccc5c4n3CCN5CCCN)n(C)c12 [Example 7]
